Assay results as given in the supplement of paper PMC10307832.

Columns and labels:
Assay in all cases: relative viability (nuclei count vs DMSO), 5 days (fraction); higher = more cells survive
[1] = compound: CCOC(=O)CCNc1cc(N2CCc3ccccc3CC2)nc(-c2ccccn2)n1 [GSK-J4] + CS(=O)(=O)N1CCN(Cc2cc3nc(-c4cccc5[nH]ncc45)nc(N4CCOCC4)c3s2)CC1 [Pictilisib] (partner 1 µM)
Procedure, shortened: (§1)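 Cells from lung cancer lines were seeded into 1536-well plates and, one day later, dosed by pin tool. Treatments were either a single drug or a fixed dose of an anchor drug with five library-drug doses (not always all listed) in √10 steps. After 5 days, nuclei were stained in a one-step fixation (final 0.05% Triton X-100, 1% formaldehyde, 1 ug/ml Hoechst) and counted on 4× images, and relative viability is the treated-to-vehicle nuclei ratio, as the median of duplicate plates.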

[2] = compound: CCOC(=O)CCNc1cc(N2CCc3ccccc3CC2)nc(-c2ccccn2)n1 [GSK-J4] + COc1cccc2cc(-c3nc([C@H]4CC[C@H](C(=O)O)CC4)n4ncnc(N)c34)[nH]c12 [OSI-027] (partner 0.5 µM)
Procedure, shortened: as §1

[3] = compound: CCOC(=O)CCNc1cc(N2CCc3ccccc3CC2)nc(-c2ccccn2)n1 [GSK-J4] + Cc1cc(Nc2cc(N3CCN(C)CC3)nc(Sc3ccc(NC(=O)C4CC4)cc3)n2)n[nH]1 [Tozasertib] (partner 0.1 µM)
Procedure, shortened: as §1

[4] = compound: CCOC(=O)CCNc1cc(N2CCc3ccccc3CC2)nc(-c2ccccn2)n1 [GSK-J4] + C[C@]1(O)C[C@@H](c2nc(-c3ccc4ccc(-c5ccccc5)nc4c3)c3c(N)nccn32)C1 [Linsitinib] (partner 1 µM)
Procedure, shortened: as §1

Row | Cell Line | relative viability ([1]; first compound 0.5 µM) | relative viability ([1]; first compound 5 µM) | relative viability ([1]; first compound 15.81 µM) | relative viability ([1]; first compound 50 µM) | relative viability ([2]; first compound 0.5 µM) | relative viability ([2]; first compound 1.581 µM) | relative viability ([2]; first compound 15.81 µM) | relative viability ([2]; first compound 50 µM) | relative viability ([3]; first compound 0.5 µM) | relative viability ([3]; first compound 1.581 µM) | relative viability ([3]; first compound 15.81 µM) | relative viability ([3]; first compound 50 µM) | relative viability ([4]; first compound 0.5 µM) | relative viability ([4]; first compound 1.581 µM) | relative viability ([4]; first compound 15.81 µM) | relative viability ([4]; first compound 50 µM) | relative viability ([1]; first compound 1.581 µM) | relative viability ([2]; first compound 5 µM) | relative viability ([3]; first compound 5 µM) | relative viability ([4]; first compound 5 µM)
1 | HCC-366 | 0.125 | 0.137 | 0.181 | 0.122 | 1.01 | 0.889 | 0.524 | 0.785 | 0.138 | 0.0869 | 0.083 | 0.0821 | 0.622 | 0.547 | 0.478 | 0.437 |  |  |  | 
2 | HCC-827 | 0.945 | 1.14 | 0.949 | 1.03 | 0.751 | 0.635 | 0.576 | 0.787 | 0.408 | 0.434 | 0.4 | 0.362 | 0.932 | 0.955 | 0.902 | 0.87 | 1.13 | 0.792 | 0.44 | 0.889
3 | HOP-62 | 0.735 | 0.762 | 0.76 | 0.387 | 0.69 | 0.692 | 0.858 | 0.497 | 0.344 | 0.335 | 0.339 | 0.24 | 0.952 | 0.78 | 0.835 | 0.855 | 0.322 | 0.722 | 0.358 | 0.83
4 | IA-LM | 0.376 | 0.489 | 0.251 | 0.0942 |  |  |  |  |  |  |  |  | 0.556 | 0.288 | 0.463 | 0.201 | 0.202 |  |  | 0.634
5 | LC-2-ad | 0.548 | 0.622 | 0.547 | 0.322 | 0.828 | 0.759 | 0.623 | 0.528 | 0.429 | 0.377 | 0.399 | 0.36 | 0.795 | 0.831 | 0.769 | 0.839 | 0.458 | 0.659 | 0.41 | 0.794
6 | LCLC-97TM1 |  | 0.399 | 0.249 | 0.15 | 0.443 | 0.357 | 0.342 | 0.269 | 0.322 | 0.187 | 0.146 | 0.165 |  |  | 0.23 | 0.146 |  | 0.574 | 0.226 | 0.213
7 | LCLC-103H | 0.704 | 0.542 | 0.691 | 0.627 | 0.438 | 0.325 | 0.432 | 0.326 | 0.515 | 0.434 | 0.444 | 0.332 | 0.914 | 0.978 | 1.06 | 1.04 | 0.6 | 0.379 | 0.526 | 1.12
8 | LK-2 | 0.573 | 0.736 | 0.456 | 0.443 | 0.268 | 0.193 | 0.152 | 0.19 | 0.165 |  | 0.164 | 0.147 | 0.69 | 0.449 | 0.537 | 0.602 | 0.531 | 0.204 | 0.167 | 0.774
9 | LOU-NH91 | 0.596 | 0.542 | 0.532 | 0.518 | 0.749 | 0.721 | 0.69 | 0.792 | 0.654 | 0.502 | 0.619 | 0.644 | 1 | 0.928 | 0.817 | 1 | 0.508 | 0.56 | 0.438 | 0.804
10 | LU99A | 0.277 | 0.292 | 0.346 | 0.219 | 0.267 | 0.323 | 0.248 | 0.236 | 0.233 | 0.276 | 0.281 | 0.253 | 0.515 | 0.53 | 0.404 | 0.457 | 0.276 |  |  | 0.565
11 | LXF-289 | 0.761 | 0.691 | 0.754 | 0.562 | 0.783 | 0.583 | 0.711 | 0.52 | 0.198 | 0.154 | 0.166 | 0.204 | 0.973 | 0.912 | 0.915 | 0.893 | 0.655 | 0.53 | 0.132 | 0.956
12 | NCI-H522 |  |  |  |  | 0.78 | 0.637 | 0.585 | 0.543 | 0.541 | 0.608 | 0.515 | 0.485 |  |  |  |  |  | 0.541 | 0.502 | 
13 | NCI-H1299 | 0.733 | 0.849 | 0.705 | 0.327 |  |  |  |  |  |  |  |  | 0.979 | 0.881 | 0.962 | 0.988 | 0.802 |  |  | 0.813
14 | NCI-H1563 | 0.695 | 0.62 | 0.709 | 0.619 | 0.796 | 0.766 | 0.659 | 0.748 |  |  |  |  | 1.15 | 1.2 | 1.18 | 1.24 | 0.719 | 0.659 |  | 1.22
15 | NCI-H1623 |  |  |  |  | 0.438 | 0.456 | 0.406 | 0.435 | 0.437 | 0.467 | 0.435 | 0.451 |  |  |  |  |  | 0.48 | 0.455 | 
16 | NCI-H1648 |  |  |  |  | 0.239 |  | 0.262 | 0.23 | 0.44 |  | 0.324 | 0.307 |  |  |  |  |  | 0.308 | 0.978 | 
17 | NCI-H1650 | 0.644 | 0.622 | 0.533 | 0.291 | 0.732 | 0.365 | 0.606 | 0.553 | 0.369 | 0.393 | 0.311 | 0.301 |  |  |  |  | 0.258 | 0.673 | 0.333 | 
18 | NCI-H1703 | 0.254 | 0.232 | 0.195 | 0.275 |  |  |  |  |  |  |  |  | 0.636 | 0.276 | 0.364 | 0.761 | 0.259 |  |  | 0.336
19 | NCI-H1792 | 0.306 | 0.254 | 0.244 | 0.263 | 0.671 |  | 0.485 | 0.681 |  |  |  |  | 0.543 | 0.296 | 0.465 | 0.635 | 0.25 | 0.778 |  | 0.518
20 | NCI-H2170 | 0.325 | 0.27 | 0.357 | 0.221 | 0.692 | 0.696 | 0.702 | 0.524 | 0.599 | 0.544 | 0.759 | 0.512 |  |  |  |  | 0.381 | 0.718 | 0.692 | 
21 | NCI-H2342 |  |  |  |  | 0.669 | 0.626 | 0.615 | 0.699 | 0.427 | 0.664 | 0.557 | 0.529 |  |  |  |  |  | 0.662 | 0.482 | 
22 | SW 900 |  |  |  |  | 0.543 | 0.602 | 0.52 | 0.331 | 0.478 | 0.463 | 0.408 | 0.333 |  |  |  |  |  | 0.504 | 0.696 | 
